From PubChem BioAssay (NCI)
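Where inhibition never reached the appropriate level, the endpoint shown equals the highest concentration tested. Otherwise, values were interpolated linearly from a five-concentration, 48-hour dose response in 96-well plates. GI50 = concentration required for 50% inhibition of growth. The concentration for full growth arrest is given as TGI.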

Tests used:
Test in all cases: inhibition of tumour cell growth, NCI panel, 48 h
SNB-75 CNS = tested on: SNB-75 CNS
SK-MEL-2 melanoma = tested on: SK-MEL-2 melanoma
NCI/ADR-RES ovarian = tested on: NCI/ADR-RES ovarian
SK-OV-3 ovarian = tested on: SK-OV-3 ovarian
TK-10 renal = tested on: TK-10 renal
PC-3 prostate = tested on: PC-3 prostate
DU-145 prostate = tested on: DU-145 prostate
EKVX NSCLC = tested on: EKVX NSCLC
HOP-92 NSCLC = tested on: HOP-92 NSCLC
UACC-257 melanoma = tested on: UACC-257 melanoma
MDA-MB-435 = tested on: MDA-MB-435
MDA-MB-231 breast = tested on: MDA-MB-231 breast
HL-60(TB) leukemia = tested on: HL-60(TB) leukemia
CAKI-1 renal = tested on: CAKI-1 renal
A498 renal = tested on: A498 renal
U251 CNS = tested on: U251 CNS
KM12 colon = tested on: KM12 colon
T-47D breast = tested on: T-47D breast
HS 578T breast = tested on: HS 578T breast
HT29 colon = tested on: HT29 colon
MCF7 breast = tested on: MCF7 breast
NCI-H522 lung = tested on: NCI-H522 lung
A549 NSCLC = tested on: A549 NSCLC
OVCAR-3 ovarian = tested on: OVCAR-3 ovarian
NCI-H226 lung = tested on: NCI-H226 lung
SK-MEL-28 melanoma = tested on: SK-MEL-28 melanoma
UO-31 renal = tested on: UO-31 renal
HCT-116 colon = tested on: HCT-116 colon
RXF 393 renal = tested on: RXF 393 renal
786-0 renal = tested on: 786-0 renal
M14 melanoma = tested on: M14 melanoma
K-562 leukemia = tested on: K-562 leukemia
LOX IMVI melanoma = tested on: LOX IMVI melanoma
CCRF-CEM leukemia = tested on: CCRF-CEM leukemia
NCI-H23 lung = tested on: NCI-H23 lung
HOP-62 NSCLC = tested on: HOP-62 NSCLC
ACHN renal = tested on: ACHN renal
SN12C renal = tested on: SN12C renal
SF-268 CNS = tested on: SF-268 CNS
HCC-2998 colon = tested on: HCC-2998 colon
SR leukemia = tested on: SR leukemia
SNB-19 CNS = tested on: SNB-19 CNS
OVCAR-4 ovarian = tested on: OVCAR-4 ovarian
MDA-MB-468 breast = tested on: MDA-MB-468 breast
UACC-62 melanoma = tested on: UACC-62 melanoma
MOLT-4 leukemia = tested on: MOLT-4 leukemia
RPMI-8226 leukemia = tested on: RPMI-8226 leukemia
BT-549 breast = tested on: BT-549 breast
NCI-H460 lung = tested on: NCI-H460 lung
HCT-15 colon = tested on: HCT-15 colon
SW-620 colon = tested on: SW-620 colon
OVCAR-8 ovarian = tested on: OVCAR-8 ovarian
MALME-3M melanoma = tested on: MALME-3M melanoma
IGROV1 ovarian = tested on: IGROV1 ovarian
SF-295 CNS = tested on: SF-295 CNS
OVCAR-5 ovarian = tested on: OVCAR-5 ovarian
SK-MEL-5 melanoma = tested on: SK-MEL-5 melanoma
SF-539 CNS = tested on: SF-539 CNS
COLO 205 colon = tested on: COLO 205 colon

## COc1cc2c(c(OC)c1OC)C(=O)CC(c1cccc(NC(=O)c3cccc([N+](=O)[O-])c3)c1)O2 (stereo not drawn)
SNB-75 CNS
  GI50: 7.73 µM
  TGI: > 100 µM
SK-MEL-2 melanoma
  GI50: 7.49 µM
  TGI: 48.8 µM
NCI/ADR-RES ovarian
  GI50: 4.88 µM
  TGI: > 100 µM
SK-OV-3 ovarian
  GI50: > 100 µM
  TGI: > 100 µM
TK-10 renal
  GI50: 51.6 µM
  TGI: > 100 µM
PC-3 prostate
  GI50: 4.66 µM
  TGI: > 100 µM
DU-145 prostate
  GI50: 21.5 µM
  TGI: > 100 µM
EKVX NSCLC
  GI50: > 100 µM
  TGI: > 100 µM
HOP-92 NSCLC
  GI50: 4.29 µM
  TGI: > 100 µM
UACC-257 melanoma
  GI50: 19.5 µM
  TGI: > 100 µM
MDA-MB-435
  GI50: 4.3 µM
  TGI: 21.5 µM
MDA-MB-231 breast
  GI50: 18.8 µM
  TGI: > 100 µM
HL-60(TB) leukemia
  GI50: 3.84 µM
  TGI: 29.1 µM
CAKI-1 renal
  GI50: 6.66 µM
  TGI: > 100 µM
A498 renal
  GI50: 67.4 µM
  TGI: > 100 µM
U251 CNS
  GI50: 20.1 µM
  TGI: > 100 µM
KM12 colon
  GI50: 3.39 µM
  TGI: > 100 µM
T-47D breast
  GI50: 3.74 µM
  TGI: > 100 µM
HS 578T breast
  GI50: 7.29 µM
  TGI: > 100 µM
HT29 colon
  GI50: 26.8 µM
  TGI: > 100 µM
MCF7 breast
  GI50: 6.99 µM
  TGI: > 100 µM
NCI-H522 lung
  GI50: 4.65 µM
  TGI: 49.8 µM
A549 NSCLC
  GI50: 21.7 µM
  TGI: > 100 µM
OVCAR-3 ovarian
  GI50: 9.49 µM
  TGI: > 100 µM
NCI-H226 lung
  GI50: 5.77 µM
  TGI: > 100 µM
SK-MEL-28 melanoma
  GI50: 35.2 µM
  TGI: > 100 µM
UO-31 renal
  GI50: 4.79 µM
  TGI: > 100 µM
HCT-116 colon
  GI50: 9.24 µM
  TGI: > 100 µM
RXF 393 renal
  GI50: 3.62 µM
  TGI: > 100 µM
786-0 renal
  GI50: 47.9 µM
  TGI: > 100 µM
M14 melanoma
  GI50: 19.2 µM
  TGI: > 100 µM
K-562 leukemia
  GI50: 6.03 µM
  TGI: > 100 µM
LOX IMVI melanoma
  GI50: 13.9 µM
  TGI: > 100 µM
CCRF-CEM leukemia
  GI50: 3.44 µM
  TGI: > 100 µM
NCI-H23 lung
  GI50: 32.8 µM
  TGI: > 100 µM
HOP-62 NSCLC
  GI50: 98.7 µM
  TGI: > 100 µM
ACHN renal
  GI50: 21.5 µM
  TGI: > 100 µM
SN12C renal
  GI50: 11.2 µM
  TGI: > 100 µM
SF-268 CNS
  GI50: 18.5 µM
  TGI: > 100 µM
HCC-2998 colon
  GI50: 55.1 µM
  TGI: > 100 µM
SR leukemia
  GI50: 3.15 µM
  TGI: > 100 µM
SNB-19 CNS
  GI50: 36.9 µM
  TGI: > 100 µM
OVCAR-4 ovarian
  GI50: 7.98 µM
  TGI: > 100 µM
MDA-MB-468 breast
  GI50: 2.07 µM
  TGI: 8.94 µM
UACC-62 melanoma
  GI50: 4.07 µM
  TGI: 65.4 µM
MOLT-4 leukemia
  GI50: 3.93 µM
  TGI: > 100 µM
RPMI-8226 leukemia
  GI50: 3.24 µM
  TGI: 48.6 µM
BT-549 breast
  GI50: 5 µM
  TGI: 57.7 µM
NCI-H460 lung
  GI50: 17.2 µM
  TGI: > 100 µM
HCT-15 colon
  GI50: 6.57 µM
  TGI: > 100 µM
SW-620 colon
  GI50: 10.9 µM
  TGI: > 100 µM
OVCAR-8 ovarian
  GI50: 4.62 µM
  TGI: > 100 µM
MALME-3M melanoma
  GI50: 10.1 µM
  TGI: > 100 µM
IGROV1 ovarian
  GI50: 18.6 µM
  TGI: > 100 µM
SF-295 CNS
  GI50: 18.7 µM
  TGI: > 100 µM
OVCAR-5 ovarian
  GI50: 74.6 µM
  TGI: > 100 µM
SK-MEL-5 melanoma
  GI50: 6.3 µM
  TGI: 46.7 µM
SF-539 CNS
  GI50: 29.3 µM
  TGI: > 100 µM
COLO 205 colon
  GI50: 28 µM
  TGI: > 100 µM
